Source: US20140213604A1, “PROTEIN KINASE C AS A TARGET FOR THE TREATMENT OF RESPIRATORY SYNCYTIAL VIRUS” (priority 2002, published 2014)
Where two headings read alike, the source gives them in different places. Where a SMILES comes first, the peptide text is derived from it. The star is where a group is joined. Myristoyl = CCCCCCCCCCCCCC(=O)*

Key:
[1] = test system: RSV infection of NHBE cells; experiment: RSV infection of NHBE cells treated with signaling inhibitors, FITC anti-RSV mab staining and cell counting; format: cell-based, respiratory syncytial virus (RSV); conditions: inhibitor 2 h before and 48 h after RSV, AG 490 50 μM, PD98059 80 μM, RO318220 3 μM, Wortmannin 300 nM
Protocol: NHBE cells were treated with different inhibitors for 2 hours at concentration as: AG 490 (50 μM), PD98059 (80 μM), RO318220 (3 μM), and Wortmannin (300 nM). DMSO was used as a mock control. The inhibitors were removed and the cells were infected with RSV for 2 hours. After the RSV was removed, the growth medium with the same concentration of inhibitors was added to the cells for 48 hours. The cells were rinsed with PBS prior to staining with FITC-labeled Anti-RSV monoclonal antibody (mab) (CHEMICON, Temecula, Calif.). The total cells and RSV positive cells were counted randomly from 15 to 20 different spots.
To determine if different signaling molecules related to the ERK pathway are required for a successful RSV infection, primary NHBE cells were exposed to various inhibitors previously to being infected with a sucrose-purified RSV preparation. […] Also, other PKC isoforms are activated later during the infection, which could potentially play a role in the late phase of ERK activation (Monick, M. et al., J Immunol, 166(4):2681-2687, 2001).

[2] = test system: RSV infection of NHBE cells; experiment: RSV infection of NHBE cells pre-treated with PKC inhibitors, single cell immunofluorescence assay; format: cell-based, respiratory syncytial virus (RSV); conditions: for number of infected cells, dose dependence: inhibitor 30 min before infection; for IC50: 16 h, read-out: concentration at which 50% inhibition of infected cells was reached

| Compound | number of RSV infected cells [1] | number of infected cells, dose dependence ([2]; NHBE cells, RSV 1 MOI) | also measured |
| --- | --- | --- | --- |
| N#C/C(=C/c1ccc(O)c(O)c1)C(=O)NCc1ccccc1 [AG490] | significant reduction | – | number of RSV infected cells ([1]; listed as AG 490): substantially decrease |
| COc1ccc2c(c[n+](C)c3c4cc5c(cc4ccc23)OCO5)c1OC [Chelerythrine] | – | reduced in a dose-dependent manner | IC50 ([2]; human respiratory syncytial virus, NHBE): 7.5 µM |
| CCCCCCCCCCCCCC(=O)N[C@@H](Cc1ccccc1)C(=O)N[C@@H](C)C(=O)N[C@@H](CCCNC(=N)N)C(=O)N[C@@H](CCCCN)C(=O)NCC(=O)N[C@@H](C)C(=O)N[C@@H](CC(C)C)C(=O)N[C@@H](CCCNC(=N)N)C(=O)N[C@@H](CCC(N)=O)C(N)=O [N-Myr-Phe-Ala-Arg-Lys-Gly-Ala-Leu-Arg-Gln] (Myristoyl-FARKGALRQ-NH2; N-terminus and C-terminus assumed) | – | – | solubility in water: soluble in water |
| COc1cccc(-c2cc(=O)c3ccccc3o2)c1N [PD98059] | significant reduction | – | – |
| Cn1cc(C2=C(c3cn(CCCSC(=N)N)c4ccccc34)C(=O)NC2=O)c2ccccc21 [Ro318220] | significant reduction | – | number of RSV infected cells ([1]; listed as RO318220): substantially decrease |
| Calphostin C | – | reduced in a dose-dependent manner | IC50 ([2]; NHBE cells, RSV 1 MOI): 0.375 µM |
